The text below walks through data of US5164381A, “Pharmacologically active 1,5-diaryl-3-substituted pyrazoles and method for synthesizing the same” (Ortho Pharmaceutical Corporation, priority 1991, dated 1992).

One may read the ED50 as the midpoint of the dose-response relation.

Each structure is given as a SMILES string.

One assay concerns Lewis strain laboratory rats. The assay can be described thus: In vivo alleviation of inflammation: polyarthritis (adjuvant, Mycobacterium butyricum) in rats, inhibition of paw volume increase. The note with it: Rattus norvegicus, po, rat; read-out: ED50 (effective dose to obtain a 50% inhibition of inflammation). The protocol:
Polyarthritis was induced in Lewis strain laboratory rats (weight=about 200 grams) by injection of a suspension of Mycobacterium butyricum in mineral oil into the subplantar tissue of the mammal's hind paws. On day 10 after the injection, the rats were assigned to groups, and paw volumes and body weights were recorded. Paw volumes of the contralateral, uninjected hind paw were determined by mercury plethylsmography. Per oral (p.o.) dosing began and continued for five consecutive days thereafter. On day 14 after the initial injection, approximately four hours after the final dose was administered, paw volumes and body weights were recorded and quantitated.
Anti-inflammatory activity of the substituted pyrazole compounds is expressed as the percent inhibition of paw volume increase.
For the compound `COc1ccc(-n2nc(CCC(=O)N(C)OC(=O)CN(C)C)cc2-c2ccc(Cl)cc2)cc1` [Compound 134, 3-[5-(4-Chlorophenyl)-1-(4-methoxyphenyl)-3-pyrazolyl]-N',N'-dimethylglycinyloxy-N-methylpropanamide], the ED50 was determined as 12.5 mg/kg.

As for `COc1ccc(-n2nc(CCCN(O)C(=O)C(=O)NO)cc2-c2ccc(Cl)cc2)cc1` [Compound 158, N-[3-[5-(4-Chlorophenyl)-1-(4-methoxyphenyl)-3-pyrazolyl]propyl]-N,N'-dihydroxyoxamide], the ED50 amounted to 33.4 mg/kg.

Turning to `COc1ccc(-n2nc(CCC(=O)N(C)OC(=O)CCC(=O)O)cc2-c2ccc(C)cc2)cc1` [Compound 130], the ED50 was determined as 11.5 mg/kg.

As for `COc1ccc(-c2cc(CCC(=O)N(C)O)nn2-c2ccc(Cl)cc2)cc1` [Compound 112], the 50% effective dose (ED50) came to 16.3 mg/kg.

Consider `COc1ccc(-n2nc(CCC(=O)N(C)OC(=O)CCl)cc2-c2ccc(Cl)cc2)cc1` [Compound 139, 3-[5-(4-Chlorophenyl)-1-(4-methoxyphenyl)-3-pyrazolyl]N-chloroacetyloxy-N-methylpropanamide], for which the median effective dose (ED50) came out at 6 mg/kg.

Regarding `COc1ccc(-n2nc(CCC(=O)N(C)O)cc2-c2ccc(C(F)(F)F)cc2)cc1` [Compound 79], the ED50 was 3.2 mg/kg.

Turning to `COc1ccc(-n2nc(CCC=O)cc2-c2ccc(Cl)cc2)cc1` [Compound 11, 3-[5-(4-Chlorophenyl)-1-(4-methoxyphenyl)-3-pyrazolyl] propanal], the ED50 worked out at 2.6 mg/kg.

The same assay, now with this note: p.o., rat; monohydrate.
Regarding `COc1ccc(-n2nc(CCC(=O)O)cc2-c2ccc(Cl)cc2)cc1` [Compound 13, Sodium 3-[5-(4-chlorophenyl)-1-(4-methoxyphenyl)-3-pyrazoyl] propanoate monohydrate], the “ED50 (effective dose to obtain a 50% inhibition of inflammation)” value is reported as 1.8 mpk.

Staying with this assay, now noted: po, 336 h; 10 mpk p.o., rat; read-out: % INH. p.o. (percentage inhibition of pad swelling).
Consider `COc1ccc(-n2nc(CCC(=O)O)cc2-c2cccc(C)c2)cc1` [Compound 106], for which the inhibition in vivo at 10 mg/kg was determined as 11%.

As for `COc1ccc(-n2nc(CCC(=O)N(C)OC(=O)CCC(=O)N3CCOCC3)cc2-c2ccc(Cl)cc2)cc1` [Compound 136], the inhibition in vivo at 10 mg/kg came to 38%.

With `COc1ccccc1-n1nc(CCC(=O)O)cc1-c1ccc(Cl)cc1` [Compound 103], the inhibition in vivo at 10 mg/kg came out at 55%.

For the compound `COc1ccc(-n2nc(CCC(=O)N(O)C(C)=O)cc2-c2ccc(Cl)cc2)cc1` [Compound 171, N-Acetyl-3-[5-(4-chlorophenyl)-1-(4-methoxyphenyl)-3-pyrazolyl]-N-hydroxy-propanamide], the inhibition in vivo at 10 mg/kg was 62%.

Regarding `COc1ccc(-n2nc(CCC(=O)O)cc2-c2ccccc2C)cc1` [Compound 109], the inhibition in vivo at 10 mg/kg was 1%.

On to `CCOC(=O)C(=O)N(O)CCCc1cc(-c2ccc(Cl)cc2)n(-c2ccc(OC)cc2)n1` [Compound 157, Ethyl N-[3-[5-(4-chlorophenyl)-1-(4-methoxyphenyl)-3-pyrazolyl]-propyl]-hydroxyoxamate], for which the inhibition in vivo at 10 mg/kg came out at 51%.

Turning to `COc1ccc(-n2nc(CCCN(O)C(C)=O)cc2-c2ccc(Cl)cc2)cc1` [Compound 152, N-[3-[5-(4-Chlorophenyl)-1-(4-methoxyphenyl)-3-pyrazolyl]propyl]-N-hydroxy-acetamide], the inhibition in vivo at 10 mg/kg came out at 40%.

As for `COCC(=O)ON(C)C(=O)CCc1cc(-c2ccc(Cl)cc2)n(-c2ccc(OC)cc2)n1` [Compound 142], the inhibition in vivo at 10 mg/kg was determined as 67%.

For `COc1ccc(-n2nc(CCC(=O)N(C)O)cc2-c2ccccc2C)cc1` [Compound 118], the inhibition in vivo at 10 mg/kg was determined as 6%.

Turning to `COc1ccc(-n2nc(CCC(=O)O)cc2-c2ccc(C)c(C)c2)cc1` [Compound 107], the inhibition in vivo at 10 mg/kg came out at 30%.

Staying with this assay, now noted: po, 336 h; 15 mpk p.o., rat; read-out: % INH. p.o. (percentage inhibition of pad swelling).
On to `COc1ccc(-n2nc(CCC(=NNc3nccs3)c3ccccc3)cc2-c2ccc(Cl)cc2)cc1` [Compound 176], for which the inhibition in vivo at 15 mg/kg worked out at 6%.

For the compound `COc1ccc(-n2nc(CCC(=O)N(C)OC(C)=O)cc2-c2ccc(Cl)cc2)cc1` [Compound 140], the inhibition in vivo at 15 mg/kg came out at 77%.

In the case of `COc1ccc(-n2nc(CCC(O)c3ccccc3)cc2-c2ccc(Cl)cc2)cc1` (stereo not shown) [Compound 178], the inhibition in vivo at 15 mg/kg came out at 8%.

Regarding `COc1ccc(-n2nc(CCCOCC(=O)O)cc2-c2ccc(Cl)cc2)cc1` [Compound 93], the inhibition in vivo at 15 mg/kg stood at 17%.

`COc1ccccc1-n1nc(CCC(=O)N(C)O)cc1-c1ccc(Cl)cc1` [Compound 104]: the inhibition in vivo at 15 mg/kg was determined as 39%.

Consider `CCN(O)C(=O)CCc1cc(-c2ccc(Cl)cc2)n(-c2ccc(OC)cc2)n1` [Compound 83, 3-[5-(4-chlorophenyl)-1-(4-methoxyphenyl)-3-pyrazolyl]-N-ethyl-N-hydroxypropanamide], for which the inhibition in vivo at 15 mg/kg worked out at 42%.

As for `COc1ccc(-n2nc(CCC(=O)NCC(=O)N(C)O)cc2-c2ccc(Cl)cc2)cc1` [Compound 89], the inhibition in vivo at 15 mg/kg was determined as 57%.

On to `CCC(=O)CCc1cc(-c2ccc(Cl)cc2)n(-c2ccc(OC)cc2)n1` [Compound 180], for which the inhibition in vivo at 15 mg/kg turned out to be 32%.

Consider `COc1ccc(-n2nc(CCC(=O)NCCO)cc2-c2ccc(Cl)cc2)cc1` [Compound 65], for which the inhibition in vivo at 15 mg/kg came out at 21%.

As for `COc1ccc(-n2nc(CCC=NNc3nccs3)cc2-c2ccc(Cl)cc2)cc1` [Compound 174], the inhibition in vivo at 15 mg/kg was found to be 37%.

Still in this assay, the particulars now being: po, 336 h; 25 mpk p.o., rat; read-out: % INH. p.o. (percentage inhibition of pad swelling).
Consider `COc1ccc(-n2nc(CCC(N)=O)cc2-c2ccc(Cl)cc2)cc1` [Compound 31], for which the inhibition in vivo at 25 mg/kg amounted to 75%.

As for `COc1ccc(-n2nc(CCC(=O)NO)cc2-c2ccc(Cl)cc2)cc1` [Compound 29, 3-[5-(4-Chlorophenyl)-1-(4-methoxyphenyl)-3-pyrazolyl]-N-hydroxypropanamide], the inhibition in vivo at 25 mg/kg turned out to be 91%.

Turning to `COc1ccc(-n2nc(CCC=NO)cc2-c2ccc(Cl)cc2)cc1` [Compound 26, 5-(4-Chlorophenyl)-3-(3-oximinopropyl)-1-(4-methoxyphenyl) pyrazole], the inhibition in vivo at 25 mg/kg was found to be 79%.

On to `OCCCc1cc(-c2ccc(Cl)cc2)n(-c2ccc(Br)cc2)n1` [Compound 35, 1-(4-bromophenyl)-5-(4-chlorophenyl)-3-(3-hydroxypropyl) pyrazole], for which the inhibition in vivo at 25 mg/kg was determined as 65%.

`COc1ccc(-n2nc(CC/C=C\CCCC(=O)O)cc2-c2ccc(Cl)cc2)cc1` [Compound 32, Sodium 8-[5-(4-Chlorophenyl)-1-(4-methoxyphenyl)-3-pyrazolyl]-5(Z)-octenoate]: the inhibition in vivo at 25 mg/kg is 69%.

Turning to `COc1ccc(-n2nc(CCC(=O)N(C)OC)cc2-c2ccc(Cl)cc2)cc1` [Compound 44], the inhibition in vivo at 25 mg/kg worked out at 69%.

Consider `COc1ccc(-n2nc(CCC(=O)ONC(C)(C)C)cc2-c2ccc(Cl)cc2)cc1` [Compound 57, 0-[2-[5-(4-Chlorophenyl)-1-(4-methoxyphenyl)-3-pyrazolyl]ethylcarbonyl]-N-tert-butylhydroxylamine], for which the inhibition in vivo at 25 mg/kg came out at 87%.

Consider `COc1ccc(-n2nc(CCCO)cc2-c2ccc(F)cc2)cc1` [Compound 30], for which the inhibition in vivo at 25 mg/kg turned out to be 42%.

Take `COCCCc1cc(-c2ccc(Cl)cc2)n(-c2ccc(OC)cc2)n1` [Compound 24, 3-[5-(4-Chlorophenyl)-1-(4-methoxyphenyl)-3-pyrazolyl] propyl methyl ether]: the inhibition in vivo at 25 mg/kg worked out at 64%.

As to `COc1ccc(-n2nc(CCCO)cc2-c2ccc(-c3ccccc3)cc2)cc1` [Compound 54], the inhibition in vivo at 25 mg/kg amounted to 36%.

On to `OCCCc1cc(-c2ccc(Cl)cc2)n(-c2ccccc2C(F)(F)F)n1` [Compound 60], for which the inhibition in vivo at 25 mg/kg stood at 8%.

On to `Cc1ccc(-n2nc(CCCO)cc2-c2ccc(Cl)cc2)cc1` [Compound 37], for which the inhibition in vivo at 25 mg/kg came to 41%.

Staying with this assay, now noted: po, 336 h; 30 mpk p.o., rat; read-out: % INH. p.o. (percentage inhibition of pad swelling).
Consider `CCCCCOc1ccc(-n2nc(CCCO)cc2-c2ccc(Cl)cc2)cc1` [Compound 51], for which the inhibition in vivo at 30 mg/kg is 6.4%.

Staying with this assay, now noted: po, 336 h; 40 mpk p.o., rat; read-out: % INH. p.o. (percentage inhibition of pad swelling).
`O=[N+]([O-])c1ccc(-n2nc(CCCO)cc2-c2ccc(Cl)cc2)cc1` [Compound 48]: the inhibition in vivo at 40 mg/kg was 40%.

Take `CCOC(=O)CCc1cc(-c2ccc(Cl)cc2)n(-c2ccc(OCC)cc2)n1` [Compound 75]: the inhibition in vivo at 40 mg/kg stood at 73%.

As for `COc1ccc(-n2nc(CCC(C)=O)cc2-c2ccc(Cl)cc2)cc1` [Compound 23, 5-(4-Chlorophenyl)-1-(4-methoxyphenyl)-3-(3-oxobutyl)pyrazole], the inhibition in vivo at 40 mg/kg was 53%.

`COC(=O)CCc1cc(-c2ccc(Cl)cc2)n(-c2ccc(OC)cc2)n1` [Compound 19, Methyl 3-[5-(4-chlorophenyl)-1-(4-methoxyphenyl)-3-pyrazolyl] propionate]: the inhibition in vivo at 40 mg/kg turned out to be 69%.

As to `CNOC(=O)CCc1cc(-c2ccc(Cl)cc2)n(-c2ccc(OC)cc2)n1` [Compound 53, 0-[2-[5-(4-Chlorophenyl)-1-(4-methoxyphenyl)-3-pyrazolyl]ethyl-carbonyl]-N-methylhydroxylamine], the inhibition in vivo at 40 mg/kg was 94%.

Staying with this assay, now noted: po, 336 h; 50 mpk p.o., rat; read-out: % INH. p.o. (percentage inhibition of pad swelling).
As to `COc1ccccc1-n1nc(CCCO)cc1-c1ccc(Cl)cc1` [Compound 22], the inhibition in vivo at 50 mg/kg was 33%.

With `COc1ccc(-n2nc(CCCO)cc2-c2ccccc2)cc1` [Compound 10], the inhibition in vivo at 50 mg/kg was found to be 30%.

As for `CS(=O)(=O)c1ccc(-n2nc(CCCO)cc2-c2ccc(Cl)cc2)cc1` [Compound 36], the inhibition in vivo at 50 mg/kg came to 40%.
